Here are results for five compounds from patent US12150998B2, “Bicyclic peptide ligands specific for P-selectin” (BicycleTx Limited, priority 2021, dated 2024).

Molecules are shown by their SMILES. Starred links: 1 amine or outer side, 2 acyl side, 3 side chain; linkers in the order of their positions; H or OH if unused. Positions of bridges follow the written chain, without caps; N, C: chain ends. Non-standard residues stand in square brackets, D forms with d. Residues, ends and D or L forms follow the SMILES beside them. Chains are numbered I, II in the order given. X5 = O=C(CCCC(=O)NCCOCCOCCOCCOCCOCCOCCOCCOCCOCCOCCn1cc(CCC(=O)[*:2])nn1)NCCOCCOCCOCCOCCOCCOCCOCCOCCOCCOCCn1cc(CCC(=O)[*:1])nn1; TATA = O=C(CC[*:1])N1CN(C(=O)CC[*:2])CN(C(=O)CC[*:3])C1; X1 = O=C(C[*:1])N1CCN(C(=O)C[*:2])CCN(C(=O)C[*:3])CC1; 1Nal = N[C@@H](Cc1cccc2ccccc12)C(=O)O Some results are limits rather than exact numbers.

Experiment [1] has as its target T1, human P-Selectin protein (Homo sapiens, UniProt P16109).
T1 sequence (P16109 42-830): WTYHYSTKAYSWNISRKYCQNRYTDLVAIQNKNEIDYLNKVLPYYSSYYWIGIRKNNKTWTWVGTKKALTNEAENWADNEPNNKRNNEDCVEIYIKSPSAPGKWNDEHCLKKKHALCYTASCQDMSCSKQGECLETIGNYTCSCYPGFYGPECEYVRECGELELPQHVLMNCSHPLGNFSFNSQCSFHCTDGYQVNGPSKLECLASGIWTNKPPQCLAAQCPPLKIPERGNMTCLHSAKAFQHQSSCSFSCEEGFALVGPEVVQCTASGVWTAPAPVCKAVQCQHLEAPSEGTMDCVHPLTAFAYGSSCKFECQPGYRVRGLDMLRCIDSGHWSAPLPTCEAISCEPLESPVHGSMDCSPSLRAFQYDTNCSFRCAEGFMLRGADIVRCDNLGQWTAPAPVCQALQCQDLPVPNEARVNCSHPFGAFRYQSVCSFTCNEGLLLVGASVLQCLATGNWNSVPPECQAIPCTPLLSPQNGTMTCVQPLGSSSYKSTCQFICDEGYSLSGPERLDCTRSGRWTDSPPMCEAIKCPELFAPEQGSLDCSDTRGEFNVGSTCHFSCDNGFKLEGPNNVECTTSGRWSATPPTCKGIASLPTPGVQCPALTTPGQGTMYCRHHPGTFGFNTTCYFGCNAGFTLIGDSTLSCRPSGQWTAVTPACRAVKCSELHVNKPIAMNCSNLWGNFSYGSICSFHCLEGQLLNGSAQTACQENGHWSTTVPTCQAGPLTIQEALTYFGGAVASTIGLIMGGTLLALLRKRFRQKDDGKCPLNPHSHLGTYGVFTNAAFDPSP
Kind of experiment: SPR binding assay (Biacore). The conditions noted are these: recombinant biotinylated human P-Selectin, 25° C.; read-out: Affinity KD determined by SPR. Here is the method: Biacore experiments were performed to determine ka (M−1s−1), kd (s−1), KD (nM) values of monomeric peptides binding to human Selectin proteins. Recombinant biotinylated human P-Selectin protein was used. For analysis of binding, either a Biacore 3000 or 5200 instrument was used with a CMS sensor chip (GE Healthcare). For sensor chip surface preparation, streptavidin was immobilized on the chip using standard amine-coupling chemistry at 25° C. with HBS-N (10 mM HEPES, 0.15 M NaCl, pH 7.4) as the running buffer. The carboxymethyl dextran surface was activated with a 12 min injection of a 1:1 ratio of 0.4 M 1-ethyl-3-(3-dim ethyl aminopropyl) carbodiimide hydrochloride (EDC)/0.1 M N-hydroxy succinimide (NHS) at a flow rate of 10 μl/min. For capture of streptavidin, protein was diluted to 0.2 mg/ml in 10 mM sodium acetate (pH 4.5) and captured by injecting 70 μl onto the activated chip surface. Residual activated groups were blocked with a 7 min injection of 1 M ethanolamine (pH 8.5). Biotinylated protein stock was diluted 1:100 in HBS-N and captured on one flow cell at 5 μl/min to a level of 1000-1500 RU. Buffer was changed to PBS/0.05% Tween 20 and a dilution series of the peptides was prepared in this buffer with a final DMSO concentration of 0.5%. The top concentration of the analyte varied from 200 nM to 50 μM; depending on predicted affinity of the interaction. In all cases a titration was performed with either seven 2-fold dilutions or five 3-fold dilutions. The SPR analysis was run at 25° C. with a flow rate of 50-80 μl/min with 60 seconds association and a suitable disassociation period (100-900 seconds). Data were corrected for DMSO excluded volume effects. All data were double-referenced for blank injections and reference surface using standard processing procedures and data processing and kinetic fitting were performed using Scrubber software, version 2.0c (BioLogic Software). Data were fitted using mass transport model allowing for mass transport effects where appropriate.

The target in experiment [2] is T2, P-Selectin:PSGL1 interaction (Homo sapiens, UniProt P16109).
T2 construct: host or cells: HL-60 cells (ATCC, CCL-240) supply the PSGL-1 partner endogenously
T2 sequence (P16109 42-771 limits assumed): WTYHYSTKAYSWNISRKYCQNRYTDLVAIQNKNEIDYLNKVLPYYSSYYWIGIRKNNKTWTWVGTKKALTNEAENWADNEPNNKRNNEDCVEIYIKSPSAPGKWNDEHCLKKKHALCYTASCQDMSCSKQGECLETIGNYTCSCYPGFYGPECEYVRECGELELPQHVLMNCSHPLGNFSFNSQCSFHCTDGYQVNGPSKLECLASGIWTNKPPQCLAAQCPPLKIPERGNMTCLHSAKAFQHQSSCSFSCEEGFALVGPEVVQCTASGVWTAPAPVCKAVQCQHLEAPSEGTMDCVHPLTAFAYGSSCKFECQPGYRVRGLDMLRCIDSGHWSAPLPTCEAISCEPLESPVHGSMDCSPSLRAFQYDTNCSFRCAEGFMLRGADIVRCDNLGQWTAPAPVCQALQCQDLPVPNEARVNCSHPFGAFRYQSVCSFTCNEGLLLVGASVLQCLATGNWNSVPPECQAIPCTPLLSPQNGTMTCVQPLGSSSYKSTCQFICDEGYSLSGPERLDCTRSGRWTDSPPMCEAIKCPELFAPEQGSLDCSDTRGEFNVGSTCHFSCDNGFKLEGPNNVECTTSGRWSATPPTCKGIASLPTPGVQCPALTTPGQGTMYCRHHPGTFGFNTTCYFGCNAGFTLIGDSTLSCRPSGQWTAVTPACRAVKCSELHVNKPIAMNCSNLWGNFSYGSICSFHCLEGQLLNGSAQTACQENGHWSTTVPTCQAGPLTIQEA
In words: Receptor ligand inhibition assay (P-Selectin binding to HL-60 cells). In kind it is cell-based. As to conditions: geomean of n=3; for IC50: 5 nM P-Selectin, HL-60 cells, read-out: IC50; for Inhibition at top concentration: 100−% response at top concentration. The procedure:
Bicycle test samples, SelG1 (Crizanlizumab) were serially diluted maintaining 0.5% DMSO in assay buffer (25 mM HEPES, 121 mM NaCl, 5.4 mM KCl, 0.8 mM MgCl2, 1.8 mM CaCl2), 6 mM […], 5.5 mM glucose, 1% BSA, pH7.4) and transferred to 384 well clear bottom plates (Corning, 3712) with a final volume of 6 μL. […], of P-Selectin in imaging buffer (25 mM HEPES, 121 mM NaCl, 5.4 mM KCl, 0.8 mM MgCl2, 1.8 mM CaCl2), 6 mM […], 5.5 mM glucose, pH7.4) was added to give a 5 nM final concentration and incubated at room temperature for 15 minutes. HL-60 cells (ATCC, CCL-240) mixed with 1 μg/mL far red labelled wheat germ agglutinin (WGA, ThermoFisher W21404) and 1 μg/mL AlexaFluor 488-streptavidin (Invitrogen S11223) were added to the plate and incubated for 2 hours at room temperature in the absence of light. Staining and antibody binding were quantified by simultaneously scanning the microplates with 488 nm and 640 nm lasers on a mirrorball microplate cytometer, AF488 on FL2 triggering on AF647-WGA on FL4. Data was analysed in Dotmatics, using a four parameter logistic fit to generate IC50 values and % response. Percent inhibition was calculated using 100−% response at top concentration.

On to `CSCC[C@@H]1NC(=O)[C@H](Cc2ccc(O)cc2)NC(=O)[C@@H](NC(=O)[C@H](C)NC(=O)CCc2cn(CCOCCOCCOCCOCCOCCOCCOCCOCCOCCOCCNC(=O)CCCC(=O)NCCOCCOCCOCCOCCOCCOCCOCCOCCOCCOCCn3cc(CCC(=O)N[C@@H](C)C(=O)N[C@H]4CSCCC(=O)N5CN6CN(C5)C(=O)CCSC[C@H](NC(=O)[C@H](Cc5c[nH]c7ccccc57)NC(=O)[C@H](CCC(=O)O)NC(=O)[C@H](CCSC)NC(=O)[C@H](Cc5ccc(O)cc5)NC4=O)C(=O)N[C@@H](CC(=O)O)C(=O)N[C@@H](C(C)C)C(=O)N[C@@H]([C@@H](C)O)C(=O)N[C@@H](CC(=O)O)C(=O)N[C@@H](Cc4ccc(O)cc4)C(=O)NCC(=O)N[C@H](C(=O)N[C@@H](C)C(N)=O)CSCCC6=O)nn3)nn2)CSCCC(=O)N2CN3CN(C2)C(=O)CCSC[C@H](NC(=O)[C@H](Cc2c[nH]c4ccccc24)NC(=O)[C@H](CCC(=O)O)NC1=O)C(=O)N[C@@H](CC(=O)O)C(=O)N[C@@H](C(C)C)C(=O)N[C@@H]([C@@H](C)O)C(=O)N[C@@H](CC(=O)O)C(=O)N[C@@H](Cc1ccc(O)cc1)C(=O)NCC(=O)N[C@H](C(=O)N[C@@H](C)C(N)=O)CSCCC3=O` [BCY5454], for which the Kd in experiment [1] was determined as 0.4 µM.

As to `CSCC[C@@H]1NC(=O)[C@H](Cc2ccc(O)cc2)NC(=O)[C@@H](NC(=O)[C@H](C)NC(C)=O)CSCCC(=O)N2CN3CN(C2)C(=O)CCSC[C@H](NC(=O)[C@H](Cc2c[nH]c4ccccc24)NC(=O)[C@H](CCC(=O)O)NC1=O)C(=O)N[C@@H](CC(=O)O)C(=O)N[C@@H](C(C)C)C(=O)N[C@@H]([C@@H](C)O)C(=O)N[C@@H](CC(=O)O)C(=O)N[C@@H](Cc1ccc(O)cc1)C(=O)NCC(=O)N[C@H](C(=O)N[C@@H](CCCCNC(=O)CCc1cn(CCOCCOCCOCCOCCOCCOCCOCCOCCOCCOCCNC(=O)CCCC(=O)NCCOCCOCCOCCOCCOCCOCCOCCOCCOCCOCCn2cc(CCC(=O)NCCCC[C@H](NC(=O)[C@@H]4CSCCC(=O)N5CN6CN(C5)C(=O)CCSC[C@H](NC(=O)[C@H](Cc5c[nH]c7ccccc57)NC(=O)[C@H](CCC(=O)O)NC(=O)[C@H](CCSC)NC(=O)[C@H](Cc5ccc(O)cc5)NC(=O)[C@@H](NC(=O)[C@H](C)NC(C)=O)CSCCC6=O)C(=O)N[C@@H](CC(=O)O)C(=O)N[C@@H](C(C)C)C(=O)N[C@@H]([C@@H](C)O)C(=O)N[C@@H](CC(=O)O)C(=O)N[C@@H](Cc5ccc(O)cc5)C(=O)NCC(=O)N4)C(N)=O)nn2)nn1)C(N)=O)CSCCC3=O` [BCY5456] (I: Ac-ACYMEWCDVTDYGCK-NH2 / II: Ac-ACYMEWCDVTDYGCK-NH2; linker I:2-I:7-I:14, II:2-II:7-II:14 via TATA; linker I:15-II:15 via X5), in experiment [1], the Kd was 0.5 µM. With `CSCC[C@@H]1NC(=O)[C@H](Cc2ccc(O)cc2)NC(=O)[C@@H](NC(C)=O)CSCCC(=O)N2CN3CN(C2)C(=O)CCSC[C@H](NC(=O)[C@H](Cc2c[nH]c4ccccc24)NC(=O)[C@H](CCC(=O)O)NC1=O)C(=O)N[C@@H](CC(=O)O)C(=O)N[C@@H](C(C)C)C(=O)N[C@@H]([C@@H](C)O)C(=O)N[C@@H](CC(=O)O)C(=O)N[C@@H](Cc1ccc(O)cc1)C(=O)NCC(=O)N[C@H](C(N)=O)CSCCC3=O` [BCY9717, Ac-(SEQ ID NO: 6)] (Ac-CYMEWCDVTDYGC-NH2; linker 1-6-13 via TATA; C-terminus assumed), in experiment [2], the IC50 is greater than 10.9 µM and the “Inhibition at top concentration” value amounted to 20%.

On to `CSCC[C@@H]1NC(=O)[C@H](Cc2ccc(O)cc2)NC(=O)[C@@H](NC(=O)[C@H](C)NC(C)=O)CSCCC(=O)N2CN3CN(C2)C(=O)CCSC[C@H](NC(=O)[C@H](Cc2cccc4ccccc24)NC(=O)[C@H](CCC(=O)O)NC1=O)C(=O)N[C@@H](CC(=O)O)C(=O)N[C@@H](C(C)C)C(=O)N[C@@H]([C@@H](C)O)C(=O)N[C@@H](CC(=O)O)C(=O)N[C@@H](Cc1ccc(O)cc1)C(=O)NCC(=O)N[C@H](C(=O)N[C@@H](C)C(N)=O)CSCCC3=O` [BCY11279, Ac-A-(SEQ ID NO: 4)-A] (Ac-ACYME[1Nal]CDVTDYGCA-NH2; linker 2-7-14 via TATA), for which, in experiment [2], the IC50 is greater than 3.54 µM and the “Inhibition at top concentration” value came out at 24%.

For the compound `CC(C)C[C@@H]1NC(=O)[C@H](CO)NC(=O)[C@@H]2CCCN2C(=O)[C@H](C(C)C)NC(=O)[C@H](CC(=O)O)NC(=O)[C@@H]2CSCC(=O)N3CCN(CCN(CC3)C(=O)CSC[C@@H](C(=O)N[C@@H](C)C(N)=O)NC(=O)[C@@H]3CCCN3C1=O)C(=O)CSC[C@H](NC(=O)[C@H](C)N)C(=O)N[C@@H](CC(=O)O)C(=O)N[C@@H](C)C(=O)N[C@@H](CC(=O)O)C(=O)N[C@@H](Cc1c[nH]c3ccccc13)C(=O)N2` [BCY11648, A-(SEQ ID NO: 3)-A] (H-ACDADWCDVPSLPCA-NH2; linker 2-7-14 via X1; N-terminus and C-terminus assumed), in experiment [2], the half-maximal inhibitory concentration (IC50) was greater than 0.117 µM and the “Inhibition at top concentration” value was found to be 37%.
